Reference: patent publication US12660819B2, “Herbicidal derivatives” (SYNGENTA CROP PROTECTION AG, priority 2020, dated 2026)

Assays:
Type in all cases: in vivo
[1] = system: Zea mays (ZEAMX); assay: Pre-emergence Test (glasshouse, percentage damage to the plant); settings: 1000 g/ha unless otherwise stated, Zea mays
[2] = system: Amaranthus palmeri (AMAPA); assay: as above; settings: 1000 g/ha unless otherwise stated, Amaranthus palmeri
[3] = system: Amaranthus retoflexus (AMARE); assay: as above; settings: 1000 g/ha unless otherwise stated, Amaranthus retoflexus
[4] = system: Ipomoea hederacea (IPOHE); assay: as above; settings: 1000 g/ha unless otherwise stated, Ipomoea hederacea
[5] = system: Amaranthus retoflexus (AMARE); assay: Post-emergence Test (glasshouse, percentage damage to the plant); settings: post-emergence; 1000 g/ha unless otherwise stated; evaluated after 13 days
Method in brief: (§1)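 Rate 1000 g/ha unless stated otherwise. Vehicle: acetone/water 50:50 with 0.5% Tween 20, diluted into aqueous spray. Timing: spray after sowing, read 13 days later. Score: 5=81-100%, 4=61-80%, 3=41-60%, 2=21-40%, 1=0-20% damage.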

[6] = system: Echinochloa crus-galli (ECHCG); assay: as above; settings: post-emergence; 1000 g/ha unless otherwise stated; evaluated after 13 days
Method in brief: as §1

[7] = system: Ipomoea hederacea (IPOHE); assay: as above; settings: post-emergence; 1000 g/ha unless otherwise stated; evaluated after 13 days
Method in brief: (§2)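 Seeds are sown in standard soil under controlled glasshouse conditions. The pots are then sprayed at 1000 g/ha, unless otherwise stated, with compound in acetone/water (50:50) containing 0.5% Tween 20. After 13 days further growth, percentage plant damage is scored from 1 (0-20%) to 5 (81-100%).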

[8] = system: Zea mays (ZEAMX); assay: as above; settings: post-emergence; 1000 g/ha unless otherwise stated; evaluated after 13 days
Method in brief: as §2

[9] = system: Amaranthus palmeri (AMAPA); assay: as above; settings: post-emergence; 1000 g/ha unless otherwise stated; evaluated after 13 days
Method in brief: as §1

[10] = system: Setaria faberi (SETFA); assay: as above; settings: post-emergence; 1000 g/ha unless otherwise stated; evaluated after 13 days
Method in brief: as §2

[11] = system: Setaria faberi (SETFA); assay: Pre-emergence Test (glasshouse, percentage damage to the plant); settings: 1000 g/ha unless otherwise stated, Setaria faberi
[12] = system: Echinochloa crus-galli (ECHCG); assay: as above; settings: 1000 g/ha unless otherwise stated, Echinochloa crus-galli

SMILES | percentage damage to the plant, ZEAMX (five-point scale) [1] | percentage damage to the plant, AMAPA (five-point scale) [2] | percentage damage to the plant, AMARE (five-point scale) [3] | percentage damage to the plant, IPOHE (five-point scale) [4] | AMARE, percentage damage caused to the plant (five-point scale) [5] | ECHCG, percentage damage caused to the plant (five-point scale) [6] | IPOHE, percentage damage caused to the plant (five-point scale) [7] | ZEAMX, percentage damage caused to the plant (five-point scale) [8] | AMAPA, percentage damage caused to the plant (five-point scale) [9] | SETFA, percentage damage caused to the plant (five-point scale) [10] | percentage damage to the plant, SETFA (five-point scale) [11] | percentage damage to the plant, ECHCG (five-point scale) [12]
CCn1c(C)c(-c2cc(C(F)(F)F)ccc2F)c(=O)c(C(=O)O)c1-c1ccc(Cl)c(Cl)c1 [Compound 206, 2-(3,4-dichlorophenyl)-1-ethyl-5-[2-fluoro-5-(trifluoromethyl)phenyl]-6-methyl-4-oxo-pyridine-3-carboxylic acid] | 0 | 4 (4=61-80%) | 2 (2=21-40%) | 3 (3=41-60%) | 4 (4=61-80%) | 2 (2=21-40%) | 2 (2=21-40%) | 1 (1=0-20%) | 4 (4=61-80%) | 4 (4=61-80%) | 5 (5=81-100%) | 2 (2=21-40%)
CCn1c(C)c(-c2ccc(Cl)cc2Cl)c(=O)c(C(=O)O)c1-c1cnc(Cl)c(Cl)c1 [Compound 209, 5-(2,4-dichlorophenyl)-2-(5,6-dichloro-3-pyridyl)-1-ethyl-6-methyl-4-oxo-pyridine-3-carboxylic acid] | 0 | 5 (5=81-100%) | 5 (5=81-100%) | 1 (1=0-20%) | 5 (5=81-100%) | 5 (5=81-100%) | 4 (4=61-80%) | 4 (4=61-80%) | 5 (5=81-100%) | 5 (5=81-100%) | 4 (4=61-80%) | 4 (4=61-80%)
CCn1c(CBr)c(-c2ccc(Cl)cc2)c(=O)c(C(=O)OC)c1-c1ccc(Cl)c(Cl)c1 [Compound 218, methyl 6-(bromomethyl)-5-(4-chlorophenyl)-2-(3,4-dichlorophenyl)-1-ethyl-4-oxo-pyridine-3-carboxylate] | 0 | 0 | 0 | 0 | 3 (3=41-60%) | 1 (1=0-20%) | 0 | 1 (1=0-20%) | 3 (3=41-60%) | 2 (2=21-40%) | 0 | 0
CCn1c(C)c(-c2cccc(C(F)(F)F)c2F)c(=O)c(C(=O)O)c1-c1ccc(Cl)c(Cl)c1 [Compound 207, 2-(3,4-dichlorophenyl)-1-ethyl-5-[2-fluoro-3-(trifluoromethyl)phenyl]-6-methyl-4-oxo-pyridine-3-carboxylic acid] | 1 (1=0-20%) | 3 (3=41-60%) | 3 (3=41-60%) | 3 (3=41-60%) | 3 (3=41-60%) | 4 (4=61-80%) | 4 (4=61-80%) | 3 (3=41-60%) | 3 (3=41-60%) | 4 (4=61-80%) | 5 (5=81-100%) | 2 (2=21-40%)
